From ChEMBL document CHEMBL5233248, “Resveratrol - A comprehensive review of recent advances in anticancer drug design and development” (Eur J Med Chem, 2020)

Key:
MCF7 [1] = assay: Anticancer activity against human MCF7 cells assessed as cell growth inhibition incubated for 48 hrs by MTS assay; format: functional, cell-based; conditions: MCF7, 48 h
[2] = Cytotoxicity activity against human CCD-1059Sk cells assessed as cell growth inhibition incubated for 48 hrs by MTS assay; format: toxicity, cell-based
MCF7 [3] = assay: Anticancer activity against human MCF7 cells assessed as cell growth inhibition incubated for 48 hrs in presence of resveratrol by MTS assay; format: functional, cell-based; conditions: MCF7, 48 h
[4] = Cytotoxicity activity against human CCD-1059Sk cells assessed as cell growth inhibition incubated for 48 hrs in presence of resveratrol by MTS assay; format: toxicity, cell-based
in vitro [5] = conditions: human, CCD-1059Sk cells and MCF7 cells
Description: Selectivity index, ratio of IC50 for cytotoxicity against CCD-1059Sk cells to IC50 for antiproliferative activity against MCF7 cells

in vitro [6] = conditions: human, CCD-1059Sk cells and MCF7 cells; remark: listed apart in the source
Description: Selectivity index, ratio of IC50 for cytotoxicity against CCD-1059Sk cells to IC50 for antiproliferative activity against MCF7 cells in presence of resveratrol

MCF-12A = assay: Anticancer activity against human MCF-12A cells assessed as reduction of cell viability incubated for 48 hrs by MTT assay; format: functional, cell-based
MCF7 [7] = assay: Anticancer activity against human MCF7 cells assessed as reduction of cell viability incubated for 48 hrs by MTT assay; format: functional, cell-based; conditions: MCF7, 48 h
HaCaT = assay: Anticancer activity against human HaCaT cells assessed as reduction of cell viability incubated for 48 hrs by MTT assay; format: functional, cell-based
A-431 = assay: Anticancer activity against human A-431 cells assessed as reduction of cell viability incubated for 48 hrs by MTT assay; format: functional, cell-based; conditions: A-431, 48 h
[8] = Anticancer activity against human MuM-2B cells assessed as cell growth inhibition incubated for 72 hrs by CCK-8 assay; format: functional, cell-based
COLO 205 = assay: Anticancer activity against human COLO 205 cells assessed as cell growth inhibition; format: functional
SF-539 = assay: Anticancer activity against human SF-539 cells assessed as cell growth inhibition; format: functional
MDA-MB-435 = assay: Anticancer activity against human MDA-MB-435 cells assessed as cell growth inhibition; format: functional
MV4-11 = assay: Anticancer activity against human MV4-11 cells assessed as cell growth inhibition; format: functional; conditions: read-out: LD50 (the source's name)
SK-MEL-5 = assay: Anticancer activity against human SK-MEL-5 cells assessed as cell growth inhibition; format: functional
A2780 [9] = assay: Anticancer activity against human A2780 cells assessed as cell growth inhibition incubated for 24 hrs […] by MTT assay; format: functional, cell-based; conditions: A2780, 24 h
OVCAR-3 [10] = assay: Anticancer activity against human OVCAR-3 cells assessed as cell growth inhibition incubated for 24 hrs […] by MTT assay; format: functional, cell-based; conditions: OVCAR-3, 24 h
SK-OV-3 [11] = assay: Anticancer activity against human SK-OV-3 cells assessed as cell growth inhibition incubated for 24 hrs […] by MTT assay; format: functional, cell-based; conditions: SK-OV-3, 24 h
[12] = Anticancer activity against human HOSE cells assessed as cell growth inhibition incubated for 24 hrs […] by MTT assay; format: functional, cell-based
A2780 [13] = assay: Anticancer activity against human A2780 cells assessed as cell growth inhibition by LDH release assay; format: functional, cell-based
OVCAR-3 [14] = assay: Anticancer activity against human OVCAR-3 cells assessed as cell growth inhibition by LDH release assay; format: functional, cell-based
SK-OV-3 [15] = assay: Anticancer activity against human SK-OV-3 cells assessed as cell growth inhibition by LDH release assay; format: functional, cell-based
[16] = Anticancer activity against human HOSE cells assessed as cell growth inhibition by LDH release assay; format: functional, cell-based
[17] = Anticancer activity against human Peritoneal mesothelial cells assessed as cell growth inhibition incubated for 24 hrs […] by MTT assay; format: functional, cell-based
[18] = Anticancer activity against human Peritoneal mesothelial cells assessed as cell growth inhibition by LDH release assay; format: functional, cell-based
PC-3 = assay: Anticancer activity against human PC-3 assessed as cell growth inhibition incubated for 24 hrs by MTT assay; format: functional, cell-based; conditions: PC-3, 24 h
MCF7 [19] = assay: Anticancer activity against human MCF7 assessed as cell growth inhibition incubated for 24 hrs by MTT assay; format: functional, cell-based; conditions: MCF7, 24 h
[20] = system: Panel NCI-60 (60 carcinoma cell lines); assay: Growth inhibition of human Panel NCI-60 (60 carcinoma cell lines); format: functional
HeLa [21] = assay: Anticancer activity against human HeLa cells assessed as cell growth inhibition incubated for 48 hrs by MTT assay; format: functional, cell-based
HL-60 = assay: Anticancer activity against human HL-60 cells assessed as cell growth inhibition incubated for 48 hrs by MTT assay; format: functional, cell-based; conditions: HL-60, 48 h
SK-OV-3 [22] = assay: Anticancer activity against human SK-OV-3 assessed as cell growth inhibition incubated for 72 hrs by MTT assay; format: functional, cell-based; conditions: SK-OV-3, 72 h
Aromatase = biological target: T1, Aromatase (Homo sapiens, UniProt P11511); assay: Inhibition of human recombinant aromatase using 7-methoxy-4-trifluoromethyl coumarin as substrate preincubated for 10 mins followed by compound addition measured after 30 mins in presence of NADPH by HTS analysis
T1 sequence (P11511 whole entry): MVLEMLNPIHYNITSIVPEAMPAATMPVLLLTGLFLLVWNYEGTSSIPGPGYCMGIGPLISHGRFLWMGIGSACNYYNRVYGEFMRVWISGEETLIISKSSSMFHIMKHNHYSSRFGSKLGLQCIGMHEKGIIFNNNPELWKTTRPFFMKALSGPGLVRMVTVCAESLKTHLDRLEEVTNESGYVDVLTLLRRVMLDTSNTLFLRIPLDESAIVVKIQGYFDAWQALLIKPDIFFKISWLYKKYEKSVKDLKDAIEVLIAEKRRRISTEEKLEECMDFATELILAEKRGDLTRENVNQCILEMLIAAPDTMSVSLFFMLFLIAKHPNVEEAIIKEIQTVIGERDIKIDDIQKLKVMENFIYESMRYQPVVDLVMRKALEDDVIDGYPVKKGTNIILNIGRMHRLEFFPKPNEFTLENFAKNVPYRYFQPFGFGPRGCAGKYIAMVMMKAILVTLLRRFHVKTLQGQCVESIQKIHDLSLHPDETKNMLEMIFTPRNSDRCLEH

UACC-62 = assay: Anticancer activity against human UACC-62 cells assessed as cell growth inhibition; format: functional
SF-295 = assay: Anticancer activity against human SF-295 cells assessed as cell growth inhibition; format: functional
HCT-116 = assay: Anticancer activity against human HCT-116 cells assessed as cell growth inhibition incubated for 4 days; format: functional, cell-based; conditions: HCT-116, 96 h
B16-F10 [23] = assay: Anti cancer activity against mouse B16-F10 cells assessed as cell growth inhibition incubated for 40 hrs by Almar Blue stained fluorescence-based assay; format: functional; conditions: B16-F10, 40 h
B16-F10 [24] = assay: Anti cancer activity against mouse B16-F10 cells assessed as cell growth inhibition incubated for 40 hrs by Almar Blue stained fluorescence-based assay relative to control; format: functional
MCF7 [25] = assay: Anticancer activity against human MCF7 cells assessed as cell viability at 10 uM measured after 7 days relative to control; format: functional; conditions: MCF7, 168 h, time 7 day, read-out: Activity
ZR-75-1 = assay: Anticancer activity against human ZR-75-1 cells assessed as cell viability at 10 uM measured after 7 days relative to control; format: functional; conditions: ZR-75-1, 168 h, time 7 day, read-out: Activity
BT-549 = assay: Anticancer activity against human BT-549 cells assessed as cell viability at 10 uM measured after 7 days relative to control; format: functional; conditions: BT-549, 168 h, time 7 day, read-out: Activity
MDA-MB-157 = assay: Anticancer activity against human MDA-MB-157 cells assessed as cell viability at 10 uM measured after 7 days relative to control; format: functional; conditions: MDA-MB-157, 168 h, time 7 day, read-out: Activity
MDA-MB-231 [26] = assay: Anticancer activity against human MDA-MB-231 cells assessed as cell viability at 10 uM measured after 7 days relative to control; format: functional; conditions: MDA-MB-231, 168 h, time 7 day, read-out: Activity
HT-29 = assay: cells; conditions: Homo sapiens, HT-29, 48 h
Description: Anti cancer activity against human HT-29 cell assessed as cell growth inhibition incubated for 48 hrs by Brdu assay

Caco-2 = assay: cells; conditions: Homo sapiens, Caco-2, 48 h
Description: Anti cancer activity against human Caco-2 cell assessed as cell growth inhibition incubated for 48 hrs by Brdu assay

HepG2 = assay: cells; conditions: Homo sapiens, HepG2, 48 h
Description: Anti cancer activity against human HepG2 cell assessed as cell growth inhibition incubated for 48 hrs by Brdu assay

HeLa [27] = assay: Anticancer activity against human HeLa cells assessed as cell growth inhibition; format: functional, cell-based
MDA-MB-231 [28] = assay: Anticancer activity against human MDA-MB-231 cells assessed as cell growth inhibition incubated for 48 hrs by SRB assay; format: functional, cell-based; conditions: MDA-MB-231, 48 h
PANC-1 = assay: Anticancer activity against human PANC-1 cells assessed as cell growth inhibition incubated for 48 hrs by SRB assay; format: functional

COc1cc(/C=C/C(=O)CC(=O)/C=C/c2ccc(O)c(OC)c2)ccc1O [CURCUMIN]
IC50 (MCF7 [1]): 68.2 µM | IC50 at 48 h [2]: 133 µM | IC50 (MCF7 [3]): 61.7 µM | IC50 at 48 h [4]: 83.1 µM | selectivity ratio (in vitro [5]): 1.93 | selectivity ratio (in vitro [6]): 1.35

COc1cc(/C=C/c2ccc(SC)cc2)cc(OC)c1OC
IC50 (MCF-12A): 25.7 µM | IC50 (MCF7 [7]): 2100 nM | IC50 (HaCaT): 10 µM | IC50 (A-431): 19.3 µM

COc1cc(/C=C/c2ccc(OCC(=O)O[C@H]3c4cc5c(cc4[C@@H](c4cc(OC)c(OC)c(OC)c4)[C@H]4C(=O)OC[C@@H]43)OCO5)cc2)cc(OC)c1
IC50 [8]: 81 nM

COc1cc(/C(C#N)=C/c2ccc3ccccc3c2)cc(OC)c1OC
GI50 (COLO 205): ≤ 25 nM | GI50 (SF-539): ≤ 25 nM | GI50 (MDA-MB-435): ≤ 25 nM | CC50 (MV4-11): 200 nM | GI50 (SK-MEL-5): ≤ 25 nM

Oc1ccc(/C=C/c2ccc(O)c(O)c2)cc1O
IC50 (A2780 [9]): 4 µM | IC50 (OVCAR-3 [10]): 50 µM | IC50 (SK-OV-3 [11]): 8 µM | IC50 [12]: 502 µM | IC50 (A2780 [13]): 6 µM | IC50 (OVCAR-3 [14]): 85 µM | IC50 (SK-OV-3 [15]): 10 µM | IC50 [16]: 532 µM | IC50 [17]: 496 µM | IC50 [18]: 498 µM

Oc1ccc(/C=C/c2cccc(Br)n2)cc1O
IC50 (PC-3): 12.4 µM | IC50 (MCF7 [19]): 14.5 µM

COc1ccc(/C=C(\C#N)c2cc(OC)c(OC)c(OC)c2)cc1O
GI50 [20]: < 10 nM

COc1ccc(NC(=O)c2cc(OC)cc(OC)c2)cc1
IC50 (HeLa [21]): 38.9 µM | IC50 (HL-60): 47.7 µM

COc1cc(OC)cc(-n2cnc(-c3ccc(O)cc3)c2)c1
IC50 (SK-OV-3 [22]): 18.2 µM

COc1ccccc1/C=C/c1ccc(OC)c(OC)c1
IC50 (Aromatase): 85 µM

COc1ccc(/C(C#N)=C/c2ccc3ccccc3c2)cc1OC
GI50 (MDA-MB-435): 25 nM | GI50 (UACC-62): 25 nM | CC50 (MV4-11): 450 nM | GI50 (SF-295): 25 nM

CC1c2cc(O)c(O)cc2Oc2cc(/C=C/c3ccc(O)cc3)cc(O)c21 (stereo not drawn)
IC50 (HCT-116): 9.52 µM

COc1ccc(/C=C\c2cc(OC)cc(OC)c2)cc1 [8Z-3,4',5-TRIMETHOXYSTILBENE]
IC50 (B16-F10 [23]): 1000 nM | inhibition (INH) (B16-F10 [24]): 75% | viability at 10 µM (MCF7 [25]): 50% | viability at 10 µM (ZR-75-1): < 50% | viability at 10 µM (BT-549): 70% | viability at 10 µM (MDA-MB-157): 25% | viability at 10 µM (MDA-MB-231 [26]): 10% | IC50 (HT-29): 115 nM | IC50 (Caco-2): 145 nM | IC50 (HepG2): 473 nM

CC(=O)Oc1ccc(/C=C/c2ncc3cccc(OC(C)=O)c3n2)cc1OC(C)=O
IC50 (HeLa [27]): 10.2 µM

COc1ccc(/C=C\c2cc(OC)c(OC)c(OC)c2)cc1O [COMBRETASTATIN A4]
GI50 [20]: < 10 nM

COc1cc(/C=C/c2ccc(OC(=O)CSc3nnc(-c4cccc(C(F)(F)F)c4)o3)cc2)cc(OC)c1
IC50 (MDA-MB-231 [28]): 72 nM | GI50 (PANC-1; 48 h): 94 nM | GI50 (PANC-1; Homo sapiens, PANC-1, 48 h): 64 nM
